Here are results for five molecules from ChEMBL document CHEMBL1641379, “PEGylated derivatives of cystamine as enhanced treatments for nephropathic cystinosis” (Bioorg Med Chem Lett, 2011).

Data set [1] has as its system Fibroblast. The experiment in a line: Antinephropathic cystinosis activity in human cystinotic fibroblast assessed as decrease in cystine level at 50 uM after 24 hrs by Bradford reagent method. Format: functional, cell-based.
Data set [2] is described as follows: Cytotoxicity against human cystinotic fibroblast at 50 uM after 72 hrs by alamar blue assay. The class given is cell-based. On the technique in general: Alamar Blue is a resazurin reagent that responds to reducing activity.

Calls of active or inactive are those of the source. The calls are words filed in the database; no cut-off is given here.

As for `COCCOCCOCCOCCNC(=O)CCCC(=O)NCCSSCCNC(=O)CCCC(=O)NCCOCCOCCOCCOC`, the inhibition result in data set [1] is “Active”.
For `COCCOCCOCCNC(=O)CCC(=O)NCCSSCCNC(=O)CCC(=O)NCCOCCOCCOC`, the inhibition result in data set [1] was “Active”. Besides, the Activity result in data set [2] is “Non-toxic”.
For the molecule `NCCS` [CYSTEAMINE], in data set [1], the inhibition result was “Active”. For the same molecule, the Activity result in data set [2] is recorded as “Non-toxic”.
In the case of `COCCOCCOCCNC(=O)CCCC(=O)NCCSSCCNC(=O)CCCC(=O)NCCOCCOCCOC`, the inhibition entry in data set [1] is “Active”. For the same molecule, in data set [2], the Activity result is “Non-toxic”.
`COCCOCCOCCOCCNC(=O)CCC(=O)NCCSSCCNC(=O)CCC(=O)NCCOCCOCCOCCOC`: in data set [1], the inhibition entry was “Active”. Also, the Activity entry in data set [2] is reported as “Non-toxic”.
